In patent US11447533B2, “Antimicrobial and anticancer peptides and conjugates and compositions, methods, articles and kits relating thereto” (George Mason Research Foundation, Inc., priority 2018, dated 2022):
“Also recorded” adds a separate entry of the source.

Assays:
E. coli ATCC 25922 = experiment: Antimicrobial efficacy (resazurin virtual colony count); type: cell-based, Escherichia coli; details: for increase of EC50 in presence of albumin relative to EC50 in DPBS: DPBS + 4% (w/v) bovine serum albumin versus DPBS; for decrease of efficacy in DPBS relative to 10 mM Na-PO4: DPBS versus 10 mM Na-PO4; for decrease of efficacy under physiologically relevant ionic conditions: PBS versus low ionic conditions
[1] = tested on: E. coli ML35p outer membrane; experiment: Outer membrane disruption (β-lactamase leakage, nitrocefin); type: cell-based, Escherichia coli; details: for outer membrane disruption (β-lactamase activity) relative to HCMAB / time to reach maximum signal for nitrocefin hydrolysis: DPBS
Protocol: Interactions with Bacterial Membranes. Interaction of the peptides with bacterial membranes in different phosphate buffers were evaluated using E. coli ML35p, constructed in our laboratory. At first, competent cells of E. coli ML35 were produced by conventional competent cell preparation method, then transformed with pBR322 plasmid. Transformed colonies were selected after growing on Luria-agar containing 50 μg/mL ampicillin. A single transformed colony was grown in presence of ampicillin first in Luria broth and then in MHBII and stored as 20% glycerol stock at −80° C. This frozen stock, on the day of the experiment, was thawed and grown in MHBII containing ampicillin up to OD600 nm=0.8-0.9, washed with PBS and then suspended in the respective buffer up to the required OD600 nm for use.
Membrane Disruptions. The outer and the inner membrane disruptions by the peptides were evaluated by incubating bacterial suspension with peptides and then measuring the activity of enzymes leaked out of the cells. 100 μL of 10× concentration of peptide in water was incubated with 900 μL bacterial suspension (OD600 nm˜0.1) in respective buffer for 3 hours at room temperature with gentle rotation. Then the cells and debris were separated by centrifugation (10000 r.p.m. for 30 mins) and the supernatant was collected and tested for activity of enzymes that had leaked out of the bacterial cells. HCMAB was used as a positive control to cause 100% membrane disruption and water as a negative causing 0% disruption.
The outer membrane disruption was tested by using the activity of beta-lactamase present in the periplasmic space of E. coli ML35p. Peptides when disrupt the outer membrane enough to cause beta-lactamase to come out, the degree of disruption can be measured by the virtue of the kinetics of the enzyme and using a chromogenic cephalosporin substrate called nitrocefin. β-lactamase mediated hydrolyzed product of nitrocefin has an absorbance αmax=486 nm. Supernatant collected from the incubation of peptide with bacteria was added with nitrocefin solution in DPBS and incubated at 35° C. and continuous absorbance readings. The slope of the linear section of the absorbance curve (absorbance vs time), was used as a measure of membrane disruption and the % Disruption was calculated as: Equation 7: […]
Some of the ATRA1-variants were further tested for their ability to disrupt outer and inner membranes to form pores or disruptions sufficiently large so as to allow enzymes to leak out of their cellular compartments (cytoplasm or periplasmic space). For this purpose, two reporter molecules were used with one being the substrate of a cytoplasmic enzyme and the other was a substrate for an enzyme residing in the periplasmic space. One of the reporters, nitrocefin was the substrate for β-lactamase, which is present in the bacterial periplasm, whereas the other molecule, ONPG, was the substrate for β-galactosidase, which resides in the cytoplasm of E. coli ML35p strain. […] Similarly, β-galactosidase activity in the supernatants is evidence of inner membrane disruption and possible pore formation. When the aforesaid supernatants were tested for nitrocefin and ONPG hydrolysis, the corresponding absorbance increased with time (data not shown) indicating β-lactamase and β-galactosidase activity, respectively, and thus disruption of both the inner and outer membranes. The slopes of the increase in absorbance as a function of time provides the rate of enzyme activity. The enzyme activities in supernatants collected after incubation of bacteria with the quaternary ammonium surfactant, hexadecyltrimethylammonium bromide (HCMAB) was used as an internal reference for 100% membrane disruption. Enzyme activity for supernatants collected for cells incubated in the absence of peptide provided a reference for 0% membrane disruption. Bee venom peptide melittin was used as a positive control. […]

[2] = DPBS (with Ca++ and Mg++), pH 7.4
[3] = PBS (high / physiologically relevant ionic strength), pH 7.4

| Sequence | antimicrobial efficacy, in words (E. coli ATCC 25922; [2]) | antimicrobial efficacy, in words (E. coli ATCC 25922; [3]) | increase of EC50 in presence of albumin relative to EC50 in DPBS (E. coli ATCC 25922) | decrease of efficacy in DPBS relative to 10 mM Na-PO4 (E. coli ATCC 25922) | outer membrane disruption (β-lactamase activity) relative to HCMAB ([1]; HCMAB = 100%) | time to reach maximum signal for nitrocefin hydrolysis [1] | also measured |
| --- | --- | --- | --- | --- | --- | --- | --- |
| KRAKKFFKKLK (SEQ ID NO: 4) [ATRA1-A] | lose activity in DPBS | retained some antimicrobial activity | – | – | – | – | – |
| KRAKKFFKRLK (SEQ ID NO: 6) [ATRA1-AR] | – | completely ineffective | – | – | – | – | – |
| KRFKKFFKKLK (SEQ ID NO: 2) [ATRA1, first 11 residues of NA-CATH] | lose activity in DPBS; also recorded: lost antimicrobial property | effective in PBS | – | – | – | – | outer membrane disruption relative to HCMAB ([1]; 10 mM phosphate buffer, HCMAB = 100%): higher degree of disruption than ATRA1-R3W2 |
| KRFKKFFKKLKGGVIGVTFPF (SEQ ID NO: 38) [ATRA1-HYD, ATRA1 with hydrophobic tail of NA-CATH joined at the C-terminus by a short -GG- segment] | – | – | approximately 2 fold | ~10 fold | – | – | – |
| KRFKKFFKKLKNSVKKRAKKFFKKPK (SEQ ID NO: 53) [NA-CATH26, first 26 residues of NA-CATH] | – | – | – | ~14 fold | significantly lower degrees of β-lactamase leakage | – | decrease of efficacy under physiologically relevant ionic conditions (E. coli ATCC 25922): approximately 2 fold |
| KRWKKWWKKWK (SEQ ID NO: 14) [ATRA1-W4] | most effective in DPBS | – | – | – | – | approximately 30 mins | – |
| RRFKRFFKRLK (SEQ ID NO: 9) [ATRA1-R3] | significantly reduced in DPBS relative to its activity in PBS | – | – | – | in between those observed for ATRA1 and ATRA1-F | – | – |
| RRFRRFFRRLR (SEQ ID NO: 10) [ATRA1-R6] | highly effective in DPBS | – | – | – | – | approximately 30 mins | – |
| RRWKRFFKRWK (SEQ ID NO: 15) [ATRA1-R3W2] | more effective than either of its parent peptides | – | ~5 fold | approximately 3 fold | Higher outer membrane disruption | approximately 30 mins | antimicrobial efficacy, in words (E. coli ATCC 25922; serum): no antimicrobial property; outer membrane disruption (β-lactamase activity) relative to HCMAB ([1]; HCMAB = 100%, listed as ATRA-R3W2): approximately 4% |
| RRWKRFFKRWKGGVIGVTFPF (SEQ ID NO: 50) [ATRA1-R3W2-HYD, ATRA1-R3W2 with hydrophobic tail of NA-CATH joined by -GG-] | – | – | did not demonstrate significant changes in EC50 values | – | 160% | – | decrease of efficacy under physiologically relevant ionic conditions (E. coli ATCC 25922): ~5 fold |
